Results from ChEMBL document CHEMBL1201862, “PubChem BioAssay data set” (2004).
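Five concentrations, 48 hours, 96-well plates. At the GI50, growth is halved.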 The source made the active and inactive calls. Cut-off read from the data, not from the text of the source: active = GI50 up to about 1.1 µM and inactive = higher.

How the values were obtained:
Test in all cases: NCI-60 cell line screen, 48 h
SK-MEL-28 = test system: SK-MEL-28
ACHN = test system: ACHN
SK-MEL-5 = test system: SK-MEL-5
SR = test system: SR
HL-60 = test system: HL-60
A549 = test system: A549
HCT-116 = test system: HCT-116
SK-MEL-2 = test system: SK-MEL-2
OVCAR-4 = test system: OVCAR-4
SK-OV-3 = test system: SK-OV-3
UACC-257 = test system: UACC-257
SF-268 = test system: SF-268
HCC 2998 = test system: HCC 2998
DU-145 = test system: DU-145
A498 = test system: A498
RPMI-8226 = test system: RPMI-8226
PC-3 = test system: PC-3
CCRF-CEM = test system: CCRF-CEM
SNB-75 = test system: SNB-75
M14 = test system: M14
SN12C = test system: SN12C
MOLT-4 = test system: MOLT-4
SF-539 = test system: SF-539
BT-549 = test system: BT-549
IGROV-1 = test system: IGROV-1
T47D = test system: T47D
OVCAR-8 = test system: OVCAR-8
786-0 = test system: 786-0
OVCAR-3 = test system: OVCAR-3
Malme-3M = test system: Malme-3M
SW-620 = test system: SW-620
NCI-H460 = test system: NCI-H460
KM12 = test system: KM12
SF-295 = test system: SF-295
EKVX = test system: EKVX
NCI-H226 = test system: NCI-H226
Hs-578T = test system: Hs-578T
HOP-92 = test system: HOP-92
RXF 393 = test system: RXF 393
U-251 = test system: U-251
MCF7 = test system: MCF7
UO-31 = test system: UO-31
HOP-62 = test system: HOP-62
HT-29 = test system: HT-29
NCI-H522 = test system: NCI-H522
K562 = test system: K562
SNB-19 = test system: SNB-19
MDA-MB-231 = test system: MDA-MB-231
UACC-62 = test system: UACC-62
TK-10 = test system: TK-10
COLO 205 = test system: COLO 205
NCI-H23 = test system: NCI-H23
LOX IMVI = test system: LOX IMVI
CAKI-1 = test system: CAKI-1
NCI/ADR-RES = test system: NCI/ADR-RES
MDA-N = test system: MDA-N
MDA-MB-435 = test system: MDA-MB-435
OVCAR-5 = test system: OVCAR-5
HCT-15 = test system: HCT-15

CCCCNc1nc2ccccc2c2c1ncn2CC(C)C
GI50 (SK-MEL-28): > 100 µM (inactive)
GI50 (ACHN): > 100 µM (inactive)
GI50 (SK-MEL-5): > 100 µM (inactive)
GI50 (SR): > 100 µM (inactive)
GI50 (HL-60): > 100 µM (inactive)
GI50 (A549): > 100 µM (inactive)
GI50 (HCT-116): > 100 µM (inactive)
GI50 (SK-MEL-2): > 100 µM (inactive)
GI50 (OVCAR-4): > 100 µM (inactive)
GI50 (SK-OV-3): > 100 µM (inactive)
GI50 (UACC-257): > 100 µM (inactive)
GI50 (SF-268): > 100 µM (inactive)
GI50 (HCC 2998): > 100 µM (inactive)
GI50 (DU-145): > 100 µM (inactive)
GI50 (A498): > 100 µM (inactive)
GI50 (RPMI-8226): > 100 µM (inactive)
GI50 (PC-3): > 100 µM (inactive)
GI50 (CCRF-CEM): > 100 µM (inactive)
GI50 (SNB-75): > 100 µM (inactive)
GI50 (M14): > 100 µM (inactive)
GI50 (SN12C): > 100 µM (inactive)
GI50 (MOLT-4): > 100 µM (inactive)
GI50 (SF-539): > 100 µM (inactive)
GI50 (BT-549): > 100 µM (inactive)
GI50 (IGROV-1): > 100 µM (inactive)
GI50 (T47D): > 100 µM (inactive)
GI50 (OVCAR-8): > 100 µM (inactive)
GI50 (786-0): > 100 µM (inactive)
GI50 (OVCAR-3): > 100 µM (inactive)
GI50 (Malme-3M): > 100 µM (inactive)
GI50 (SW-620): > 100 µM (inactive)
GI50 (NCI-H460): > 100 µM (inactive)
GI50 (KM12): > 100 µM (inactive)
GI50 (SF-295): > 100 µM (inactive)
GI50 (EKVX): > 100 µM (inactive)
GI50 (NCI-H226): > 100 µM (inactive)
GI50 (Hs-578T): > 100 µM (inactive)
GI50 (HOP-92): > 100 µM (inactive)
GI50 (RXF 393): > 100 µM (inactive)
GI50 (U-251): > 100 µM (inactive)
GI50 (MCF7): > 100 µM (inactive)
GI50 (UO-31): > 100 µM (inactive)
GI50 (HOP-62): > 100 µM (inactive)
GI50 (HT-29): > 100 µM (inactive)
GI50 (NCI-H522): > 100 µM (inactive)
GI50 (K562): > 100 µM (inactive)
GI50 (SNB-19): > 100 µM (inactive)
GI50 (MDA-MB-231): > 100 µM (inactive)
GI50 (UACC-62): > 100 µM (inactive)
GI50 (TK-10): > 100 µM (inactive)
GI50 (COLO 205): > 100 µM (inactive)
GI50 (NCI-H23): > 100 µM (inactive)
GI50 (LOX IMVI): > 100 µM (inactive)
GI50 (CAKI-1): > 100 µM (inactive)
GI50 (NCI/ADR-RES): > 100 µM (inactive)
GI50 (MDA-N): > 100 µM (inactive)
GI50 (MDA-MB-435): > 100 µM (inactive)
GI50 (OVCAR-5): > 100 µM (inactive)
GI50 (HCT-15): > 100 µM

CCOC(=O)C(SCCO)C(C(=O)OCC)n1cnc2c(N)ncnc21 (stereo not drawn)
GI50 (SK-MEL-28): 17.3 µM (inactive)
GI50 (ACHN): 10.5 µM (inactive)
GI50 (SK-MEL-5): 23.1 µM (inactive)
GI50 (SR): 4.63 µM (inactive)
GI50 (HL-60): 2 µM (inactive)
GI50 (A549): 44.3 µM (inactive)
GI50 (HCT-116): 8.95 µM (inactive)
GI50 (SK-MEL-2): 15.8 µM (inactive)
GI50 (OVCAR-4): 18.7 µM (inactive)
GI50 (SK-OV-3): 54.7 µM (inactive)
GI50 (UACC-257): 35.1 µM (inactive)
GI50 (SF-268): 15.9 µM (inactive)
GI50 (HCC 2998): 13.8 µM (inactive)
GI50 (DU-145): > 67.3 µM (inactive)
GI50 (A498): 14.9 µM (inactive)
GI50 (RPMI-8226): 5.04 µM (inactive)
GI50 (PC-3): 6.05 µM (inactive)
GI50 (CCRF-CEM): 1.96 µM (inactive)
GI50 (SNB-75): 12.1 µM (inactive)
GI50 (M14): 5.07 µM (inactive)
GI50 (SN12C): 9.98 µM (inactive)
GI50 (MOLT-4): 4.78 µM (inactive)
GI50 (SF-539): 16.3 µM (inactive)
GI50 (BT-549): 15.3 µM (inactive)
GI50 (IGROV-1): 16.1 µM (inactive)
GI50 (T47D): 11.2 µM (inactive)
GI50 (OVCAR-8): 13.9 µM (inactive)
GI50 (786-0): 3.03 µM (inactive)
GI50 (OVCAR-3): 12.7 µM (inactive)
GI50 (Malme-3M): 9.91 µM (inactive)
GI50 (SW-620): 3.01 µM (inactive)
GI50 (NCI-H460): 12.4 µM (inactive)
GI50 (KM12): 17.1 µM (inactive)
GI50 (SF-295): 40.2 µM (inactive)
GI50 (EKVX): 16.5 µM (inactive)
GI50 (NCI-H226): 11.1 µM (inactive)
GI50 (Hs-578T): 17.3 µM (inactive)
GI50 (HOP-92): 2.47 µM (inactive)
GI50 (RXF 393): 14.6 µM (inactive)
GI50 (U-251): 7.26 µM (inactive)
GI50 (MCF7): 5.55 µM (inactive)
GI50 (UO-31): 20.7 µM (inactive)
GI50 (HOP-62): 21.7 µM (inactive)
GI50 (HT-29): 11 µM (inactive)
GI50 (NCI-H522): 3.46 µM (inactive)
GI50 (K562): 3.66 µM (inactive)
GI50 (SNB-19): 28.5 µM (inactive)
GI50 (MDA-MB-231): 15.5 µM (inactive)
GI50 (UACC-62): 12.3 µM (inactive)
GI50 (TK-10): 15 µM (inactive)
GI50 (COLO 205): 6.03 µM (inactive)
GI50 (NCI-H23): 14.8 µM (inactive)
GI50 (LOX IMVI): 5.61 µM (inactive)
GI50 (CAKI-1): 4.31 µM (inactive)
GI50 (NCI/ADR-RES): 19.8 µM (inactive)
GI50 (MDA-N): 15.8 µM (inactive)
GI50 (MDA-MB-435): 13.6 µM (inactive)
GI50 (OVCAR-5): 7.05 µM (inactive)
GI50 (HCT-15): 6.27 µM
